IC50 and EC50 data for six compounds are collected here from ChEMBL document CHEMBL1201862, “PubChem BioAssay data set” (2004).

One experiment deals with CHO-K1. The experiment in a line: Counterscreen for antagonists of the orexin 1 receptor (OX1R; HCRTR1): Homogeneous time resolved fluorescence (HTRF)-based cell-based dose response assay to identify antagonists of the parental CHO-K1 cell line. [Related pubchem assays (depositor defined):AID434989, AID435008, AID463079, AID485270, AID492963, AID492964, AID492965, AID493232, AID504699, AID504701]. Type of experiment: functional. The note with it: Cricetulus griseus. A general note: Counterscreens check selectivity or assay interference.

A short description of experiment [1]: Counterscreen for antagonists of the orexin 1 receptor (OX1R; HCRTR1): Fluorescence-based cell-based high throughput dose response assay to identify antagonists of the parental CHO cell line. [Related pubchem assays (depositor defined):AID434989, AID435008, AID463079, AID485270, AID492963, AID492964, AID492965, AID493232, AID504699, AID504701]. It counts as functional.

Experiment [2] concerns the target T1, Orexin/Hypocretin receptor type 1 (Homo sapiens, UniProt O43613).
T1 sequence (O43613 whole entry): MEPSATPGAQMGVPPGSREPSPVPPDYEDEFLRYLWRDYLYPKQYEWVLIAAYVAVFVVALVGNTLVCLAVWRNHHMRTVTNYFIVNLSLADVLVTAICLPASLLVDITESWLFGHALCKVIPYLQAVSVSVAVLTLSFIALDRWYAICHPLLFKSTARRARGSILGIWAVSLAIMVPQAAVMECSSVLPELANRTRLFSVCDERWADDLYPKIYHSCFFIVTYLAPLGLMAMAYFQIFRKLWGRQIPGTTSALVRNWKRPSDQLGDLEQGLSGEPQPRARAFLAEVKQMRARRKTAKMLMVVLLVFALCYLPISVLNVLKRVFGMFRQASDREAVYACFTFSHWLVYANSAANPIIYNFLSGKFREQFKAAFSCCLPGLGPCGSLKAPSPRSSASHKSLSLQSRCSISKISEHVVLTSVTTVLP
The experiment is described as follows: Homogeneous Time Resolved Fluorescence (HTRF)-based cell-based high throughput dose response assay for antagonists of the orexin 1 receptor (OX1R; HCRTR1). [Related pubchem assays (depositor defined):AID434989, AID435008, AID463079, AID485270, AID492963, AID492964, AID492965, AID493232, AID504717, AID504718]. It counts as functional.

Experiment [3] has as its target T1, Orexin/Hypocretin receptor type 1. The experiment in a line: Fluorescence-based cell-based high throughput dose response assay for antagonists of the orexin 1 receptor (OX1R; HCRTR1). [Related pubchem assays (depositor defined):AID434989, AID435008, AID463079, AID485270, AID492963, AID492964, AID492965, AID493232, AID504717, AID504718]. It counts as functional.

Experiment [4] has as its target T2, Orexin receptor type 2 (Homo sapiens, UniProt O43614).
T2 sequence (O43614 whole entry): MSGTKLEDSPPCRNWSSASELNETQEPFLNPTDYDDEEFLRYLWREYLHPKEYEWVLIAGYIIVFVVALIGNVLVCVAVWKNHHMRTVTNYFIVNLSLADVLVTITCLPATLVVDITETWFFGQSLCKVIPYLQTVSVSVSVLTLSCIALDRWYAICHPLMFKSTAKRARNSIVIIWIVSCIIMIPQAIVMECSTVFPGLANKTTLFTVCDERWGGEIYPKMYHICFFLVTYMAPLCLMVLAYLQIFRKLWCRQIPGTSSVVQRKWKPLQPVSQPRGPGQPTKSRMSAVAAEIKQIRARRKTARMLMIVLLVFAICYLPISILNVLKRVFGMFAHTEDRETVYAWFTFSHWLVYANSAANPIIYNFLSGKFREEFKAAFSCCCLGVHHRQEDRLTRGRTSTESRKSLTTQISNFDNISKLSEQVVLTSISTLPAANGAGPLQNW
The experiment is described as follows: Counterscreen assay for antagonists of the orexin 1 receptor (OX1R; HCRTR1): Fluorescence-based cell-based dose response assay for antagonists of the orexin 2 receptor (OX2R; HCRTR2), run by assay provider. It counts as functional.

Experiment [5] concerns the target T2, Orexin receptor type 2. The experiment in a line: Counterscreen assay for antagonists of the orexin 1 receptor (OX1R; HCRTR1): Homogeneous Time Resolved Fluorescence (HTRF)-based cell-based dose response assay for antagonists of the orexin 2 receptor (OX2R; HCRTR2), run by assay provider. It counts as functional.
Experiment [6] is described as follows: growth suppression of PTEN-null colon cells, dose response, cell-based, HCT116 PTEN knockout (AID 1047).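 Also: HCT116 colon tumor cells with PTEN knocked out; cells exposed to compound for 60 hours before readout; potency for loss of cell viability measured by luminescence.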 Type of experiment: functional.
Experiment [7] can be described thus: growth suppression of beta-catenin-knockout colon cells, dose response, cell-based, HCT116, human colon tumor (AID 1045).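 Also: HCT116 colon tumor cells with beta catenin knocked out; cells exposed to compound for 60 hours.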 Type of experiment: functional.
The next experiment deals with T3, Caspase-3 (Homo sapiens, UniProt P42574).
T3 sequence (P42574 whole entry): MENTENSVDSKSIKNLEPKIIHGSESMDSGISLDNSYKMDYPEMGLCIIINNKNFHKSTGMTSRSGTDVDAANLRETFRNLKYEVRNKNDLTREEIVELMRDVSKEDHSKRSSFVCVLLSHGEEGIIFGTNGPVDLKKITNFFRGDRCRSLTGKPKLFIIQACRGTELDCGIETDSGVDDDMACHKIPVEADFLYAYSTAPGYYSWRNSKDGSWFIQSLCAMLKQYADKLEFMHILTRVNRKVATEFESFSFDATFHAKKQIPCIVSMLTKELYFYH
Type of experiment: functional.

For experiment [8], the target named is T4, Sentrin-specific protease 7 (Homo sapiens, UniProt Q9BQF6).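 Also: Luminescence-based dose-response confirmation of ultra-high-throughput screening hits, measuring inhibition of SENP7.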
T4 sequence (Q9BQF6 whole entry): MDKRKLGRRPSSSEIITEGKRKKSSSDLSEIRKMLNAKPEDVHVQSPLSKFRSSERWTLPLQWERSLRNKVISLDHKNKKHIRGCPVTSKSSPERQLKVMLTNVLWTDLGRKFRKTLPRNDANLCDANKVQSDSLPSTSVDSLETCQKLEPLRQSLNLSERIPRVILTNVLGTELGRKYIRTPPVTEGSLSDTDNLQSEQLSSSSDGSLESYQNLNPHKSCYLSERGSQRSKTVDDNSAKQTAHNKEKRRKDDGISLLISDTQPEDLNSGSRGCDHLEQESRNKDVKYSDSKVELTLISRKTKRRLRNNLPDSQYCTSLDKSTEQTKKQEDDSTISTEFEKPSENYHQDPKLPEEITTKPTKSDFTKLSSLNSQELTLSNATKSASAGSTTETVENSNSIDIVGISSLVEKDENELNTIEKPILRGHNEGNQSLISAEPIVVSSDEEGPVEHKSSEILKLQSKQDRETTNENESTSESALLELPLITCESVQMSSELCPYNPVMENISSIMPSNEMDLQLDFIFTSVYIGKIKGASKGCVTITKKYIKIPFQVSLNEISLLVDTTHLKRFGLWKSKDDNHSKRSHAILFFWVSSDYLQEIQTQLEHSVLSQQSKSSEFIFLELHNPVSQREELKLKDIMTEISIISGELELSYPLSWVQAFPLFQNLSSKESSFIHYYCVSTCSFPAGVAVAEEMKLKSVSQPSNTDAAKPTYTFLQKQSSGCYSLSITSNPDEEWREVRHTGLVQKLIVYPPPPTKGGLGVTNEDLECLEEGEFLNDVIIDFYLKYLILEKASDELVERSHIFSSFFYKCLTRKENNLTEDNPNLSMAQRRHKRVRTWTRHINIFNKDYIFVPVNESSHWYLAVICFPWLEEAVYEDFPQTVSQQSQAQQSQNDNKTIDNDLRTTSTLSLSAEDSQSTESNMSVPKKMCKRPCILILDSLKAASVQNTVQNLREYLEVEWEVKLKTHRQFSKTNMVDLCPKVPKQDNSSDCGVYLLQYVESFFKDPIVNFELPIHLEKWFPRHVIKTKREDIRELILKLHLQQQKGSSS
Type of experiment: functional.

Experiment [9] addresses T5, Sentrin-specific protease 6 (Homo sapiens, UniProt Q9GZR1).
T5 sequence (Q9GZR1 whole entry): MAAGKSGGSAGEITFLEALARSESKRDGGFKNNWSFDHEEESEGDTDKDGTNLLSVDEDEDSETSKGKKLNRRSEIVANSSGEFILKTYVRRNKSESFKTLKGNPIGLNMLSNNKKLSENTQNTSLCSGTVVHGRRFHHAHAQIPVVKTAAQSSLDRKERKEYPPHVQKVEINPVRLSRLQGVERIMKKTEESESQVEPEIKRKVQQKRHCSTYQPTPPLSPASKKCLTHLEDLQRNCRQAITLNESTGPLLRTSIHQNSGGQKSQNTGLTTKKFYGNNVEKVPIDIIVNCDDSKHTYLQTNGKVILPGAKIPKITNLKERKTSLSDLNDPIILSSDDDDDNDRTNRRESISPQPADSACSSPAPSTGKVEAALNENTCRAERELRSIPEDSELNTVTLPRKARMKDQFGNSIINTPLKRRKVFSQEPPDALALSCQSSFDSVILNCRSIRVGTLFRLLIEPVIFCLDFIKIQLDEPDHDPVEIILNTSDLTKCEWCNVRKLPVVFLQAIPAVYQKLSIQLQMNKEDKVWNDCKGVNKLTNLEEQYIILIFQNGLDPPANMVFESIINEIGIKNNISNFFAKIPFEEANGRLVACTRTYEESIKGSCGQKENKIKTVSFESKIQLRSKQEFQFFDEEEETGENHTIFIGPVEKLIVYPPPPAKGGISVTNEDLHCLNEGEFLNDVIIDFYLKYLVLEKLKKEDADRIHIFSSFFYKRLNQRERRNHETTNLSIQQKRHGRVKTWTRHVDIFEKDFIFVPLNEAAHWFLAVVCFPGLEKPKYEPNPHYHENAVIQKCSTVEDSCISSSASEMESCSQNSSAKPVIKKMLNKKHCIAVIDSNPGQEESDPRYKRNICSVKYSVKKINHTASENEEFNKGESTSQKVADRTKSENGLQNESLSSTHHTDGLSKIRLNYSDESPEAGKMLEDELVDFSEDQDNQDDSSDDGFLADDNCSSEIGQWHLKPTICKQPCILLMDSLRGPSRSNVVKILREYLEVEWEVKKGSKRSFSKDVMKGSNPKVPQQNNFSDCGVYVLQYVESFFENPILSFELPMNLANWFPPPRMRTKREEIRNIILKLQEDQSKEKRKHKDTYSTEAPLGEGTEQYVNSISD
It counts as functional.

The target in experiment [10] is T6, Sentrin-specific protease 8 (Homo sapiens, UniProt Q96LD8).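 Also: luminescence read-out of SENP8 inhibition, dose-response confirmation following an ultra-high-throughput screen.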
T6 sequence (Q96LD8 whole entry): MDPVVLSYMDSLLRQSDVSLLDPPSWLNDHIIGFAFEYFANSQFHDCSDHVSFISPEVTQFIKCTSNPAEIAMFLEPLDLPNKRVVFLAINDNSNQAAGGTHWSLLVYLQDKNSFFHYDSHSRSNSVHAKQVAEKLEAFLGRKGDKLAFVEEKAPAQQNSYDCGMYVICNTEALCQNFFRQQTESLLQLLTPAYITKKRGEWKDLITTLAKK
Type of experiment: functional.

The target of experiment [11] is Luciferin 4-monooxygenase (Photinus pyralis, UniProt P08659). The experiment in a line: firefly luciferase enzyme inhibitors, dose response, biochemical, luminescence (AID 1891).
Experiment [12] in a line: Luminescence Cell-Based Dose Confirmation HTS to Identify Inhibitors of Platelet Dense Granule Release. [Related pubchem assays: 1663 (Primary HTS), 1678 (Summary of Project)]. It counts as functional.

Structures are written as SMILES. Active and inactive are the calls of the source. Bounds are passed on as bounds.

Chain of Luciferin 4-monooxygenase (P08659 whole entry): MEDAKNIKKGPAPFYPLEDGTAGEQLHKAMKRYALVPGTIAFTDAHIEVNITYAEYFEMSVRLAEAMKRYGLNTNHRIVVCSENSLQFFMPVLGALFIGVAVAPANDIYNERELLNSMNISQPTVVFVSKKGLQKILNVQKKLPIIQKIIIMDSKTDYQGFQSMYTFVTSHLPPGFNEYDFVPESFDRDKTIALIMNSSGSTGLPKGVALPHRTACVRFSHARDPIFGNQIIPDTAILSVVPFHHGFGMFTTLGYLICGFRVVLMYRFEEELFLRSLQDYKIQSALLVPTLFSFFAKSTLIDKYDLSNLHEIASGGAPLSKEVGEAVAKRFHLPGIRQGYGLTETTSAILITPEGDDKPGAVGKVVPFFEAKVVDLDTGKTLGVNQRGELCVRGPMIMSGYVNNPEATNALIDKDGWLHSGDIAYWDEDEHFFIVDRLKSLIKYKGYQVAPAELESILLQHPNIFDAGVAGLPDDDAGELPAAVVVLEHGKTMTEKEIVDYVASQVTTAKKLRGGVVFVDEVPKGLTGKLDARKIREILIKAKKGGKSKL

What is called IC50 is the midpoint of a concentration-inhibition curve. Consider `Cc1noc(C)c1S(=O)(=O)Nc1ccc(O)c2c(=O)cc(-c3ccccc3Cl)oc12`, for which the IC50 is > 66.2 µM (inactive) with CHO-K1; > 49.7 µM (inactive) in experiment [1]; 0.151 µM (active) in experiment [2]; 23.6 µM (inactive) in experiment [3]; 16.8 µM (inactive) at Orexin receptor type 2 [4]; 5.63 µM (active) on Orexin receptor type 2 [5].

For `CCn1c2ccccc2c2nc3ccccc3nc21`, the IC50 with CHO-K1 was > 66.3 µM (inactive); in experiment [1], > 49.8 µM (inactive); in experiment [2], 0.914 µM (active); in experiment [3] it was 6.2 µM (active); at Orexin receptor type 2 [4], 35.2 µM (inactive); at Orexin receptor type 2 [5] it was 6.65 µM (active).

A word on the EC50: it is the concentration giving half of the maximal effect. On to `CC(NS(=O)(=O)c1ccc(OCC(=O)Nc2cccc([N+](=O)[O-])c2)cc1)c1ccccc1` (stereo unspecified), for which the results for the EC50 in experiment [6] and in experiment [7] were 18.4 µM (active) and 18.2 µM (active), respectively. The IC50 with CHO-K1 was > 66.2 µM (inactive); in experiment [1], > 49.8 µM (inactive); in [2] it was 0.688 µM (active); in experiment [3], 13.6 µM (inactive); on Orexin receptor type 2 [4], > 88.8 µM (inactive); on Orexin receptor type 2 [5], > 50 µM (inactive).

Turning to `Cc1cc(-c2csc(Nc3ccccn3)n2)ccc1F`, the IC50 on Caspase-3 is 26 µM (active); in [8], 3.53 µM (active); in [9], 12.5 µM (active); in [10], 19.2 µM (active).

For the compound `CCN(C(=O)CO/N=C/c1ccc(OC)cc1OC)c1c(N)n(Cc2ccccc2)c(=O)[nH]c1=O`, the IC50 in the experiment on CHO-K1 was > 66.2 µM (inactive); in experiment [1] it was > 49.7 µM (inactive); in [2] it was 0.317 µM (active); in experiment [3] it was 5.93 µM (active); at Orexin receptor type 2 [4], 29 µM (inactive); on Orexin receptor type 2 [5] it was 1.77 µM (active).

With `O=C1/C(=C/c2ccc([N+](=O)[O-])cc2)CCc2ccccc21`, the EC50 in [11] is 0.404 µM (active); in [12] it was 1.11 µM (active). Besides, the IC50 at Caspase-3 was 5.9 µM (active); in experiment [8] it was 0.696 µM (active); in [9], 0.789 µM (active); in experiment [10], 1.13 µM (active).
